Data as given in paper PMC6277767, “Broad and Region-Specific Impacts of the Synthetic Cannabinoid CP 55,940 in Adolescent and Adult Female Mouse Brains” (Frontiers in Molecular Neuroscience, 2018).

System: CD1 female mouse brain lipidome
Assay: Brain-region lipid levels (HPLC/MS/MS lipidomics) 2 h after single i.p. 3 mg/kg CP 55,940 vs vehicle
Assay type: in vivo
Parameters: N-arachidonoyl phenylalanine level, Mean / N-stearoyl tryptophan level, Mean / N-stearoyl proline level, Mean / N-stearoyl leucine level, Mean / N-stearoyl phenylalanine level, Mean / N-stearoyl serine level, Mean / N-stearoyl methionine level, Mean: unit: moles per gram
Procedure: The Bloomington Institutional Animal Care and Use Committee of Indiana University reviewed and approved the animal procedures. Female mice from the CD1 strain were utilized to match our study examining THC’s effects on the brain lipidome ([Leishman et al., 2018]). Mice were given a single i.p. injection of either 3 mg/kg CP or 1:1:18 cremophor:ethanol:saline vehicle (please refer to the section “3 mg/kg CP Is Relevant for Synthetic Cannabinoid Abuse and Has Stronger Effects on the Female Mouse Brain Lipidome During Adolescence” for a justification of dose and use of female mice). Three different age groups were given injections: PND 35 and PND 50 adolescents, and adult mice (PND 113). At least eight mice in each age group received CP and at least eight received vehicle. Matching the THC study time course ([Leishman et al., 2018]), mice were sacrificed via rapid decapitation 2 h after injection. Brains were immediately removed and flash-frozen in liquid nitrogen, and then stored at -80°C until dissections were performed. Brains were dissected on an ice-cold dissection plate into the following regions: STR, HIPP, CER, THAL, CTX, HYP, MID, and STEM. These abbreviations for these brain areas will be used exclusively when discussing the results generated by these specific dissections. Each dissected area was immediately placed in liquid nitrogen and then stored at -80°C until used for lipid extraction.
Tissue extracts were performed as previously described ([Bradshaw et al., 2006]; [Stuart et al., 2013]; [Raboune et al., 2014]; [Leishman et al., 2016a],[b], [2017], [2018]). First, samples were shock frozen in liquid nitrogen, weighed, and transferred to a centrifuge tube. The mass of the largest sample was multiplied by 50 to determine how many milliliters of HPLC-grade methanol (Fisher, Fair Lawn, NJ, United States) to add. Then, samples were spiked with 500 pmol deuterium-labeled NAGly (d8NAGly; Cayman Chemical, Ann Arbor, MI, United States). Samples were placed on ice in darkness for 2 h then individually homogenized and centrifuged at 19,000 × g for 20 min at 20°C. Supernatants were diluted with HPLC water (purified in house) to make a solution of 75% water, 25% supernatant. Lipids were partially purified on C18 solid phase extraction columns (Agilent, Palo Alto, CA, United States). A series of four elutions with 1.5 mL of 60%, 75%, 85%, and 100% methanol were collected ([Stuart et al., 2013]; [Leishman et al., 2016a],[b], [2018]).
As previously described ([Bradshaw et al., 2006]; [Tan et al., 2006]; [Smoum et al., 2010]; [Stuart et al., 2013]; [Tortoriello et al., 2013]; [Raboune et al., 2014]; [Leishman et al., 2016a],[b], [2017], [2018]), samples were analyzed using an Applied Biosystems API 3000 triple quadrupole mass spectrometer with electrospray ionization (Foster City, CA, United States). Using an Agilent XDB-C18 reversed phase analytical column and optimized mobile phase gradients, 20 μL from each elution were chromatographed. Two Shimadzu 10ADvp pumps (Columbia, MD, United States) provided the pressure for gradient elution. Mobile phase A: 20% methanol, 80% water (v/v) and 1 mM ammonium acetate (Sigma, St. Louis, MO, United States). Mobile phase B: 100% methanol, 1 mM ammonium acetate. Every method run began with 0% mobile phase B, reached 100% mobile phase B flowing at 0.2 mL/min, and gradually returned to 0% mobile phase B.
This screening library will be referred to as the lipidome when discussing data from this study. HPLC/MS/MS data were analyzed using Analyst software (Applied Biosystems) ([Bradshaw et al., 2006]; [Tan et al., 2006]; [Stuart et al., 2013]; [Tortoriello et al., 2013]; [Raboune et al., 2014]; [Leishman et al., 2016a],[b], [2017], [2018]). Chromatograms (Supplementary Figure 3) were generated by determining the retention time of analytes from the analytical column with a [M-1] or [M+1] parent peak and a fragmentation peak corresponding to the programmed values. […]

[1] = hippocampus, PND 35 WT female mice, 3mg/kg CP 55,940
[2] = hypothalamus, PND 50, 3mg/kg CP 55,940
[3] = hypothalamus, PND 50 female mice, 3mg/kg CP 55,940

CCCCCCC(C)(C)c1ccc([C@@H]2C[C@H](O)CC[C@H]2CCCO)c(O)c1 [CP 55,940]
N-arachidonoyl tryptophan level, Mean [1]: BDL | N-arachidonoyl tyrosine level, Mean [1]: 7.88E-13 | N-docosahexaenoyl GABA level, Mean [1]: 9.2E-13 | N-docosahexaenoyl alanine level, Mean [1]: 5.16E-12 | N-docosahexaenoyl ethanolamine level, Mean [1]: 3.15E-11 | N-docosahexaenoyl glycine level, Mean [1]: 1.89E-11 | N-docosahexaenoyl leucine level, Mean [1]: 7.64E-13 | N-docosahexaenoyl methionine level, Mean [1]: BDL | N-docosahexaenoyl phenylalanine level, Mean [1]: 1.25E-12 | N-docosahexaenoyl proline level, Mean [1]: BDL | N-docosahexaenoyl serine level, Mean [1]: 2.42E-11 | N-docosahexaenoyl tryptophan level, Mean [1]: BDL | N-docosahexaenoyl tyrosine level, Mean [1]: PISSR | N-docosahexaenoyl valine level, Mean [1]: PISSR | N-linoleoyl GABA level, Mean [1]: 4.99E-13 | N-linoleoyl alanine level, Mean [1]: 2.58E-12 | N-linoleoyl ethanolamine level, Mean [1]: 6.76E-11 | N-linoleoyl glycine level, Mean [1]: 5.29E-12 | N-linoleoyl leucine level, Mean [1]: 3.89E-13 | N-linoleoyl methionine level, Mean [1]: BDL | N-linoleoyl phenylalanine level, Mean [1]: 2.51E-13 | N-linoleoyl proline level, Mean [1]: BDL | N-linoleoyl serine level, Mean [1]: 8.04E-11 | N-linoleoyl tryptophan level, Mean [1]: BDL | N-linoleoyl tyrosine level, Mean [1]: PISSR | N-linoleoyl valine level, Mean [1]: PISSR | N-nervonoyl valine level, Mean [1]: BDL | N-oleoyl GABA level, Mean [1]: 2.89E-12 | N-oleoyl alanine level, Mean [1]: 1.01E-11 | N-oleoyl dopamine level, Mean [1]: BDL | N-oleoyl ethanolamine level, Mean [1]: 1.48E-10 | N-oleoyl glycine level, Mean [1]: 2.1E-11 | N-oleoyl leucine level, Mean [1]: 1.71E-12 | N-oleoyl methionine level, Mean [1]: 8.45E-13 | N-oleoyl phenylalanine level, Mean [1]: 1.23E-12 | N-oleoyl proline level, Mean [1]: PISSR | N-oleoyl serine level, Mean [1]: 3.91E-10 | N-oleoyl tryptophan level, Mean [1]: PISSR | N-oleoyl tyrosine level, Mean [1]: 3.7E-13 | N-oleoyl valine level, Mean [1]: 7.17E-13 | N-palmitoyl GABA level, Mean [1]: 5.66E-12 | N-palmitoyl alanine level, Mean [1]: 1.96E-11 | N-palmitoyl ethanolamine level, Mean [1]: 6.04E-11 | N-palmitoyl glycine level, Mean [1]: 4.65E-11 | N-palmitoyl leucine level, Mean [1]: 4.19E-12 | N-palmitoyl methionine level, Mean [1]: PISSR | N-palmitoyl phenylalanine level, Mean [1]: 2.85E-12 | N-palmitoyl proline level, Mean [1]: 1.75E-12 | N-palmitoyl serine level, Mean [1]: 7.46E-11 | N-palmitoyl tryptophan level, Mean [1]: 4.02E-13 | N-palmitoyl tyrosine level, Mean [1]: 1.11E-12 | N-palmitoyl valine level, Mean [1]: 1.58E-12 | N-stearoyl GABA level, Mean [1]: 5.59E-12 | N-stearoyl alanine level, Mean [1]: 1.75E-11 | N-stearoyl ethanolamine level, Mean [1]: 1.72E-11 | N-stearoyl glycine level, Mean [1]: 2.5E-11 | N-stearoyl leucine level, Mean [1]: 1.77E-12 | N-stearoyl methionine level, Mean [1]: 1.74E-12 | N-stearoyl phenylalanine level, Mean [1]: 2.56E-12 | N-stearoyl serine level, Mean [1]: 3.13E-11 | N-stearoyl tryptophan level, Mean [1]: 1.25E-12 | N-stearoyl tyrosine level, Mean [1]: 1.27E-13 | Oleic acid level, Mean [1]: 2.69E-09 | PGE2 level, Mean [1]: 1.12E-09 | PhosphoLEA level, Mean [1]: 2.75E-11 | THC level, Mean [1]: BDL | 2-arachidonoyl glycerol, Direction (relative to Veh) [2]: ↓ | N-arachidonoyl phenylalanine, Direction (relative to Veh) [2]: ↓ | N-palmitoyl leucine, Direction (relative to Veh) [2]: ↑ | PGF2α Direction (relative to Veh) [2]: ↑ | PGF2α Magnitude (x Veh level) (hypothalamus, PND 50, 3mg/kg CP 55,940, ANOVA p .005): 1.49 x Veh level | N-arachidonoyl phenylalanine, Magnitude (x Veh level) (hypothalamus, PND 50, 3mg/kg CP 55,940, ANOVA p .013): 0.70 x Veh level | N-palmitoyl leucine, Magnitude (x Veh level) (hypothalamus, PND 50, 3mg/kg CP 55,940, ANOVA p .022): 1.34 x Veh level | 2-arachidonoyl glycerol, Magnitude (x Veh level) (hypothalamus, PND 50, 3mg/kg CP 55,940, ANOVA p .033): 0.80 x Veh level | 2-arachidonoyl glycerol level, Mean [3]: 2.57E-10 | 2-linoleoyl glycerol level, Mean [3]: 1E-10 | 2-oleoyl glycerol level, Mean [3]: 1.24E-09 | 2-palmitoyl glycerol level, Mean [3]: 2.63E-09 | 6-ketoPGF1α level, Mean [3]: 1.26E-11 | 11-OH-THC level, Mean [3]: BDL | 11-nor-9-carboxyTHC level, Mean [3]: BDL | Arachidonic acid level, Mean [3]: 1.92E-10 | Cannabidiol level, Mean [3]: BDL | Linoleic acid level, Mean [3]: 1.86E-10 | N- stearoyl valine level, Mean [3]: PISSR | N-arachidonoyl GABA level, Mean [3]: 6.6E-12 | N-arachidonoyl alanine level, Mean [3]: PISSR | N-arachidonoyl dopamine level, Mean [3]: BDL | N-arachidonoyl ethanolamine level, Mean [3]: 2.54E-11 | N-arachidonoyl glycine level, Mean [3]: 4.44E-13 | N-arachidonoyl methionine level, Mean [3]: BDL | N-arachidonoyl phenylalanine level, Mean [3]: 3.4E-13 | N-arachidonoyl proline level, Mean [3]: BDL | N-arachidonoyl serine level, Mean [3]: PISSR | N-arachidonoyl taurine level, Mean [3]: 6.54E-12 | N-arachidonoyl tryptophan level, Mean [3]: BDL | N-arachidonoyl tyrosine level, Mean [3]: BDL | N-docosahexaenoyl GABA level, Mean [3]: PISSR | N-docosahexaenoyl alanine level, Mean [3]: PISSR | N-docosahexaenoyl ethanolamine level, Mean [3]: 3.64E-11 | N-docosahexaenoyl glycine level, Mean [3]: 1.54E-13 | N-docosahexaenoyl leucine level, Mean [3]: PISSR
